Type in all cases: cell-based
One data set has as its system HCT116 cells. Nature of the data set: Growth suppression in the presence of antioxidant NAC. The conditions noted are these: HCT116, 5 mM NAC pre-treatment 16h; 2.5, 5 and 10 µM; 24h after treatment. As for the experimental part:
(§1) Cells were grown in 96-well plates at a density of 3000 cells per well with or without doxycycline and treated with compounds. After 48 hours of incubation the proliferative cell reagent resazurin (Thermo Fisher Scientific) was added to the cells. The degree of resazurin reduction, which reflects cell viability, was measured by microplate reader by monitoring the absorbance at 570 nm and 600 nm, according to the manufacturer.
To find out whether oxidative stress plays a role in cancer cell death induced by 1d*HCl, we tested the extent of growth suppression by the treatment in the presence of antioxidant N-acetyl cysteine (NAC), which neutralize ROS. We pre-treated HCT116 cells with 5 mM NAC. After 16h of incubation with NAC, we treated HCT116 cells with 2.5, 5, and 10 µM of 1d*HCl. We measured the growth suppression 24h after treatment. […] Thus, we conclude that the mechanism of cancer cell growth suppression is dependent on the induction of oxidative stress by the compounds of the present invention.

In the next data set the test system is HCT116-Cas9. As to the kind of experiment: Growth suppression assay (resazurin). The following applies: 48 hours of incubation, hydrochloride. The protocol: (§2) Breast, colon, ovarian, cervical, liver and lung carcinoma cell lines were grown in DMEM supplemented with 10% FBS, and antibiotics were cultured at 37 °C and 5% CO2. […] To obtain an oxygen concentration of 0.05%, the cells were flushed with the premixed gas continuously throughout the experiment.
as §1
(Resazurin is reduced to fluorescent resorufin, in cell work by metabolically active cells.)

In the next data set the test system is MCF7-Cas9. Nature of the data set: Growth suppression assay (resazurin). The following applies: 48 hours of incubation, hydrochloride. As for the experimental part: as §2, §1
The subject of the next data set is p53. Nature of the data set: p53 induction by Western blot. The following applies: sign of DNA damage. The protocol: (§3) The extraction of total cell lysates and western blot were performed according to standard procedure. The antibodies used for immunoblotting were: p53 (sc-126, Santa Cruz Biotechnology), γH2AX (#07-164, Millipore), TrxRl 19A1 (AbFrontier). Anti-β-actin monoclonal antibody (Millipore) was used as loading control. The horseradish peroxidase-coupled secondary antibodies (Jackson ImmunoResearch) and SuperSignal™ West Dura Extended Duration Substrate detection system (Thermo Fischer Scientific), and images were visualized using ChemiDoc Imaging System (Bio-Rad).
The majority of chemotherapeutic drugs used currently in the clinic, are DNA damaging drugs. Induction of DNA damage is a very efficient way of elimination of cancer cells. Unfortunately, these drugs induce DNA damage also in normal cells, leading to severe side effects. We addressed the question whether 1d*HCl induces DNA damage. We tested this by detection of a hallmark of DNA damage, induction of phosphorylated histone H2AX, so called γH2AX. We used anti-yH2AX antibody to detect it in cells treated with 1d*HCl.
(A western blot detects proteins with antibodies after separation by electrophoresis.)

Data set [1] relates to HCT116 p53-/- and A375p53-/- cells. As to the kind of experiment: Growth suppression in wild type p53 versus p53-negative isogenic cells. The following applies: HCT116 vs HCT116 p53-/-; A375 vs A375p53-/-. As for the experimental part: as §1
Since p53 is a major inducer of apoptosis, including ROS-induced apoptosis, we tested whether p53 plays a role in growth suppression by 1d*HCl. We used wild type p53 HCT116 cells and their isogenic p53-negative cell line HCT116 p53-/-, as well as a pair of wild type p53 A375 and p53-negative A375p53-/- melanoma cells, generated using CRISPR-Cas9, as described previously [Zhou X, Singh M, Sanz Santos G, Guerlavais V, Carvajal LA, Aivado M, Zhan Y, Oliveira MMS, Westerberg LS, Annis DA, Johnsen JI, Selivanova G. Pharmacologic activation of p53 triggers viral mimicry response thereby abolishing tumor immune evasion and promoting anti-tumor immunity Cancer Discov. ([…]), 11(12), 3090-3105]. […] This allowed us to conclude that the tumor suppression is p53 -independent. […]

The target in a further data set is T1, TrxRl covalent dimers (Homo sapiens, UniProt Q16881).
T1 construct: endogenous in cells; host or cells: MCF7 (A37, A39); HCT116 (A39)
T1 sequence (Q16881 151-649): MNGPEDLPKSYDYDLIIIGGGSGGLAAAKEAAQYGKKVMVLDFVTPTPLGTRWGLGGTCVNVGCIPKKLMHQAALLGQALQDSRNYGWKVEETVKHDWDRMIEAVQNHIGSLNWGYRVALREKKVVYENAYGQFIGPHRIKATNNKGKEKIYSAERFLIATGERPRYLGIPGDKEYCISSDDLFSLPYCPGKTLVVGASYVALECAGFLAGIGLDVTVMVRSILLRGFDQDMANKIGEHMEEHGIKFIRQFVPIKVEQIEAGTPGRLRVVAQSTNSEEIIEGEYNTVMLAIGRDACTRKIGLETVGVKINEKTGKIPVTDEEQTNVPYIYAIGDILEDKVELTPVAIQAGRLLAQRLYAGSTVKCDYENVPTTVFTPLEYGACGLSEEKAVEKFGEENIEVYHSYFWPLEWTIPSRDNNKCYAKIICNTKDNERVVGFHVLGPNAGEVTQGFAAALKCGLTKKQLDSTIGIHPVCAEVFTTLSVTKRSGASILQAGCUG
Nature of the data set: Detection of TrxR dimers by Western blot. The following applies: HCT116 and MCF7 cells, 5 µM, detected as soon as 2h after treatment. The protocol:
as §3
MCF7 or HCT116 cells were treated in culture with 5 or 10 µM of 1d*HCl (Example 4) in complete medium for 2h or 6h. For each case, duplicate drug treated samples were produced plus duplicate control treatment samples using equal volumes of the drug vehicle dimethyl sulfoxide. Detached cells from each biological replicate were washed, suspended in PBS containing protease inhibitors and cells lysed through freeze thaw cycles in liquid N2, according to the reference protocol. Soluble fraction was separated from precipitated protein by ultracentrifugation at 100000 g for 30 minutes at 4°C and TrxRl dimer formation was analysed using Western blot as described above. […]

With `Cl.N#Cc1c(-c2cccnc2)[n+]([O-])c2cc(F)c(N3CCOCC3)cc2[n+]1[O-]` [1d*HCl, 6-Fluoro-7-(morpholin-4-yl)-3-(pyridin-3-yl)quinoxaline-2-carbonitrile-1,4-dioxide hydrochloride], the “growth suppression in the presence of NAC” value with HCT116 cells is listed as “almost completely abolished the growth suppression”. Further, the values for the half-inhibitory concentration (IC50) with HCT116-Cas9 and with MCF7-Cas9 were 690 nM and 1600 nM, respectively. Moreover, in the data set with p53, the “induction of p53” value is given as “did not detect a significant induction of p53”. Further, in data set [1], the “growth suppression in the absence of p53” value is “not affected in the absence of p53”. The “formation of TrxRl covalent dimers (130 kDa band)” value at TrxRl covalent dimers is “induces the formation of TrxRl covalent dimers”.

In general, IC50 refers to the midpoint of a concentration-inhibition curve. Lower therefore signals greater potency.

Source of the values: patent EP4201929A1, “QUINOXALINE THIOREDOXIN REDUCTASE INHIBITORS” (geneXplain GmbH, priority 2021, dated 2023).
